# Laboratory results as given in patent US10442807B2, “Aryl substituted bicyclic compounds as herbicides” (FMC Corporation, priority 2015, dated 2019).
# Legend:
# Format in all cases: in vivo
# [1] = system: barnyardgrass (Echinochloa crus-galli); assay: Test A preemergence, directed soil spray, visual injury rating; conditions: approx. 10 d, 0 = no effect, 100 = complete control
# Summary of the method: (§1)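 Rated visually against untreated controls after approx. 10 d in greenhouse, scale 0 = no effect, 100 = complete control. Seeded loam/sand blend given directed soil spray preemergence, or plants sprayed at one- to two-leaf stage, 2-10 cm tall; surfactant-containing non-phytotoxic solvent formulation.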
# [2] = system: foxtail, giant (giant foxtail, Setaria faberii); assay: as above; conditions: approx. 10 d, 0 = no effect, 100 = complete control
# Summary of the method: as §1
# kochia (Kochia scoparia) [3] = assay: as above; conditions: approx. 10 d, 0 = no effect, 100 = complete control
# Summary of the method: as §1
# [4] = system: pigweed (Amaranthus retroflexus); assay: as above; conditions: approx. 10 d, 0 = no effect, 100 = complete control
# Summary of the method: as §1
# [5] = system: ragweed (common ragweed, Ambrosia elation); assay: as above; conditions: approx. 10 d, 0 = no effect, 100 = complete control
# Summary of the method: as §1
# [6] = system: ryegrass, Italian (Italian ryegrass, Lolium multiflorum); assay: as above; conditions: approx. 10 d, 0 = no effect, 100 = complete control
# Summary of the method: as §1
# [7] = system: barnyardgrass (Echinochloa crus-galli); assay: Test A postemergence application, visual injury rating; conditions: approx. 10 d, 0 = no effect, 100 = complete control
# Summary of the method: as §1
# [8] = system: blackgrass (Alopecurus myosuroides); assay: as above; conditions: approx. 10 d, 0 = no effect, 100 = complete control
# Summary of the method: as §1
# corn (Zea mays) = assay: as above; conditions: approx. 10 d, 0 = no effect, 100 = complete control
# Summary of the method: as §1
# [9] = system: foxtail, giant (giant foxtail, Setaria faberii); assay: as above; conditions: approx. 10 d, 0 = no effect, 100 = complete control
# Summary of the method: as §1
# [10] = system: galium (catchweed bedstraw, Galium aparine); assay: as above; conditions: approx. 10 d, 0 = no effect, 100 = complete control
# Summary of the method: as §1
# kochia (Kochia scoparia) [11] = assay: as above; conditions: approx. 10 d, 0 = no effect, 100 = complete control
# Summary of the method: as §1
# [12] = system: pigweed (Amaranthus retroflexus); assay: as above; conditions: approx. 10 d, 0 = no effect, 100 = complete control
# Summary of the method: as §1
# [13] = system: ragweed (common ragweed, Ambrosia elation); assay: as above; conditions: approx. 10 d, 0 = no effect, 100 = complete control
# Summary of the method: as §1
# [14] = system: ryegrass, Italian (Italian ryegrass, Lolium multiflorum); assay: as above; conditions: approx. 10 d, 0 = no effect, 100 = complete control
# Summary of the method: as §1
# [15] = system: wheat (Triticum aestivum); assay: as above; conditions: approx. 10 d, 0 = no effect, 100 = complete control
# Summary of the method: as §1
# [16] = system: barnyardgrass (Echinochloa crus-galli); assay: Test B flooded paddy test, visual plant response rating; conditions: 250 g ai/ha; applied to paddy water at 2-leaf stage; rated after 13 to 15 days; scale 0 to 100, 0 is no effect, 100 is complete control
# Summary of the method: (§2)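 Water stood 3 cm above the soil when compounds were applied into it, and it was kept there for the whole test. After 13 to 15 days in the greenhouse, plants were compared with controls and rated visually from 0 (no effect) to 100 (complete control).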
# [17] = system: ducksalad (Heteranthera limosa); assay: as above; conditions: 250 g ai/ha; applied to paddy water at 2-leaf stage; rated after 13 to 15 days; scale 0 to 100, 0 is no effect, 100 is complete control
# Summary of the method: as §2
# rice (Oryza sativa) = assay: as above; conditions: 250 g ai/ha; applied to paddy water at 2-leaf stage; rated after 13 to 15 days; scale 0 to 100, 0 is no effect, 100 is complete control
# Summary of the method: as §2
# [18] = system: sedge, umbrella (small-flower umbrella sedge, Cyperus difformis); assay: as above; conditions: 250 g ai/ha; applied to paddy water at 2-leaf stage; rated after 13 to 15 days; scale 0 to 100, 0 is no effect, 100 is complete control
# Summary of the method: as §2
SMILES,Barnyardgrass plant response rating (0 to 100 scale) ([1]; 125 g ai/ha),Barnyardgrass plant response rating (0 to 100 scale) ([1]; 500 g ai/ha),"Foxtail, Giant plant response rating (0 to 100 scale) ([2]; 125 g ai/ha)","Foxtail, Giant plant response rating (0 to 100 scale) ([2]; 500 g ai/ha)",Kochia plant response rating (0 to 100 scale) (kochia (Kochia scoparia) [3]; 125 g ai/ha),Kochia plant response rating (0 to 100 scale) (kochia (Kochia scoparia) [3]; 500 g ai/ha),Pigweed plant response rating (0 to 100 scale) ([4]; 125 g ai/ha),Pigweed plant response rating (0 to 100 scale) ([4]; 500 g ai/ha),Ragweed plant response rating (0 to 100 scale) ([5]; 125 g ai/ha),Ragweed plant response rating (0 to 100 scale) ([5]; 500 g ai/ha),"Ryegrass, Italian plant response rating (0 to 100 scale) ([6]; 125 g ai/ha)","Ryegrass, Italian plant response rating (0 to 100 scale) ([6]; 500 g ai/ha)",Barnyardgrass plant response rating (0 to 100 scale) ([7]; 125 g ai/ha),Barnyardgrass plant response rating (0 to 100 scale) ([7]; 500 g ai/ha),Blackgrass plant response rating (0 to 100 scale) ([8]; 125 g ai/ha),Blackgrass plant response rating (0 to 100 scale) ([8]; 500 g ai/ha),Corn plant response rating (0 to 100 scale) (corn (Zea mays); 125 g ai/ha),Corn plant response rating (0 to 100 scale) (corn (Zea mays); 500 g ai/ha),"Foxtail, Giant plant response rating (0 to 100 scale) ([9]; 125 g ai/ha)","Foxtail, Giant plant response rating (0 to 100 scale) ([9]; 500 g ai/ha)",also measured
Cc1nnc2n1CC(c1ccc(C(F)(F)F)cc1)C2C(=O)Nc1ccccc1C(F)(F)F (stereo not drawn) [Compound 6],0,40,0,90,0,0,0,40,0,0,40,60,0,40,0,20,0,0,0,30,"Galium plant response rating (0 to 100 scale) ([10]; 125 g ai/ha): 0; Galium plant response rating (0 to 100 scale) ([10]; 500 g ai/ha): 30; Kochia plant response rating (0 to 100 scale) (kochia (Kochia scoparia) [11]; 125 g ai/ha): 0; Kochia plant response rating (0 to 100 scale) (kochia (Kochia scoparia) [11]; 500 g ai/ha): 0; Pigweed plant response rating (0 to 100 scale) ([12]; 125 g ai/ha): 0; Pigweed plant response rating (0 to 100 scale) ([12]; 500 g ai/ha): 0; Ragweed plant response rating (0 to 100 scale) ([13]; 125 g ai/ha): 0; Ragweed plant response rating (0 to 100 scale) ([13]; 500 g ai/ha): 0; Ryegrass, Italian plant response rating (0 to 100 scale) ([14]; 125 g ai/ha): 0; Ryegrass, Italian plant response rating (0 to 100 scale) ([14]; 500 g ai/ha): 20; Wheat plant response rating (0 to 100 scale) ([15]; 125 g ai/ha): 0; Wheat plant response rating (0 to 100 scale) ([15]; 500 g ai/ha): 0; Plant response rating, Flood, Barnyardgrass [16]: 0; Plant response rating, Flood, Ducksalad [17]: 0; Plant response rating, Flood, Rice (rice (Oryza sativa)): 0; Plant response rating, Flood, Sedge, Umbrella [18]: 0"
CCCc1nnc2n1CC(c1ccc(C(F)(F)F)cc1)C2C(=O)Nc1cccc(F)c1F (stereo not drawn) [Compound 17],0,50,30,90,0,30,0,20,0,0,0,0,0,30,0,20,0,0,0,30,"Galium plant response rating (0 to 100 scale) ([10]; 125 g ai/ha): 40; Galium plant response rating (0 to 100 scale) ([10]; 500 g ai/ha): 50; Kochia plant response rating (0 to 100 scale) (kochia (Kochia scoparia) [11]; 125 g ai/ha): 20; Kochia plant response rating (0 to 100 scale) (kochia (Kochia scoparia) [11]; 500 g ai/ha): 50; Pigweed plant response rating (0 to 100 scale) ([12]; 125 g ai/ha): 0; Pigweed plant response rating (0 to 100 scale) ([12]; 500 g ai/ha): 40; Ragweed plant response rating (0 to 100 scale) ([13]; 125 g ai/ha): 0; Ragweed plant response rating (0 to 100 scale) ([13]; 500 g ai/ha): 0; Ryegrass, Italian plant response rating (0 to 100 scale) ([14]; 125 g ai/ha): 0; Ryegrass, Italian plant response rating (0 to 100 scale) ([14]; 500 g ai/ha): 0; Wheat plant response rating (0 to 100 scale) ([15]; 125 g ai/ha): 0; Wheat plant response rating (0 to 100 scale) ([15]; 500 g ai/ha): 0; Plant response rating, Flood, Barnyardgrass [16]: 0; Plant response rating, Flood, Ducksalad [17]: 30; Plant response rating, Flood, Rice (rice (Oryza sativa)): 0; Plant response rating, Flood, Sedge, Umbrella [18]: 0"
